Measurements as given in patent US7084141B2, “Inhibitors of macrophase migration inhibitory factor and methods for identifying the same” (Avanir Pharmaceuticals, priority 2001, dated 2006).

How the values were obtained:
Format in all cases: in vivo, mouse
serum MIF = assay: Serum MIF after LPS/galactosamine challenge in mice (ELISA)
Description: Doses of lipopolysacchraride (LPS) were made fresh prior to each experiment. LPS (Escherichia Coli 0111:B4, Sigma) was reconstituted by adding 0.5% TEA (1 ml USP water+[…] Triethylamine (Pierce)) to a vial of 5 mg endotoxin. Once reconstituted, the solution was incubated at 37° C. for 30 minutes. Subsequently, the solution was sonicated in a 56–60° C. bath sonicator for 30 seconds 3 times. Following sonication the mixture was vortexed for 3 minutes continuously. The stock solution of LPS was then ready for use.
Ten 10-week-old (20±2 gram) female BALB/c mice (Charles River Laboratories, Kingston, N.Y.) were housed in a group of 5 per cage with free access to food and water and were acclimatized for at least one week prior to experimentation. On the day of experiment, mice were weighed and randomly distributed into group of 10 animals of equal mean body weight. […] Mouse serum Il-1β and TNF-α were measured by ELISA using a “mouse IL 1β immunoassay or mouse TNF-α immunoassay” kits (R&D System Minneapolis, Minn.) following manufacturer's direction. Serum MIF concentrations in mouse serum were quantified by a sandwich ELISA (ChemiKine MIF Kit, Chemicon, San Diego, Calif.). Samples were analyzed in duplicate, and results were averaged. […]

serum TNF-α = assay: Serum TNF-α after LPS challenge in mice (ELISA); conditions: 20 mg/kg compound, LPS 5 mg/kg, four hours
Description: (§1) Ten 10-week-old (20±2 gram) female BALB/c mice (Charles River Laboratories, Kingston, N.Y.) were housed in a group of 5 per cage with free access to food and water and were acclimatized for at least one week prior to experimentation. On the day of experiment, mice were weighed and randomly distributed into group of 10 animals of equal mean body weight. Mice were injected i.p. with 200 μL of formulated compound 7e or buffer alone immediately before the i.p. injection of LPS (Escherichia coli 0111:B4, 10 mg/kg or 5 mg/kg body weight) and β-D-galactosamine (50 mg/kg body weight). […] Mouse serum Il-1β and TNF-α were measured by ELISA using a “mouse IL 1β immunoassay or mouse TNF-α immunoassay” kits (R&D System Minneapolis, Minn.) following manufacturer's direction. Serum MIF concentrations in mouse serum were quantified by a sandwich ELISA (ChemiKine MIF Kit, Chemicon, San Diego, Calif.). Samples were analyzed in duplicate, and results were averaged.
(§2) An initial control experiment was conducted to determine the base line levels of endogenous MIF in the murine model system (female Balb/c mice), and further to determine the rate and extent of increase in endogenous MIF following treatment with LPS (10 mg/kg). […] The level of MIF in serum was measured by HPLC as described above at 0, 2, 5 and 6 hours following LPS/galactosamine treatment. […]

DBA/1LacJ mice = assay: Collagen induced arthritis model, paw thickness; conditions: day 74, eight doses at 0.4 mg/dose; vehicle 1.99 mm; p<0.05
Description: Twenty DBA/1LacJ mice, age 10–12 weeks, were immunized on day 0 at base of the tail with bovine collagen type II (CII 100 μg) emulsified in Freunds complete adjuvant (FCA; GibcoBRL). On day 7, a second dose of collagen was administrated via the same route (emulsified in Freunds incomplete adjuvant). On Day 14 mice were injected subcutaneously with 100 mg of LPS (055:B5). On day 70 mice were injected 40 μg LPS (0111:B4) intraperitoneally. Groups were divided according paw thickness, which was measured by a caliper, after randomization, to create a balanced starting group. Compound in buffer was given to mice on days 71, 72, 73, and 74 (total eight doses at 0.4 mg/dose, approximately 20 mg/kg of body weight). Mice were then examined on day 74 by two observers for paw thickness. FIG. 14 sets forth the experimental timeline. In this experiment, subsided mice (decline of full-blown arthritis) were treated with a final i.p. injection of LPS on day 70 to stimulate cytokine production as well as acute inflammation.

serum IL-1β = assay: Serum IL-1β after LPS challenge in mice (ELISA); conditions: 20 mg/kg compound, LPS 5 mg/kg, four hours
Description: as §1, §2

Structure (SMILES): Cn1c(=O)c([N+](=O)[O-])c(N2CCN(C(=O)c3ccco3)CC2)c2ccccc21 [compound 7e]
- decrease in serum MIF (serum MIF; 5 mg/kg LPS, four hours following treatment, p=0.0003): 60%
- level of circulating MIF (serum MIF; 10 mg/kg LPS, 20 mg/kg i.p., p=0.05): significant decrease in the level of circulating MIF
- serum TNF-α level (serum TNF-α): reductions
- edema of the paw (paw thickness) (DBA/1LacJ mice): 1.87 mm
- serum IL-1β level (serum IL-1β): reductions
